In US9206241B2, “Modified prokaryotic ubiquitin-like protein and methods of use thereof” (priority 2012, dated 2015):

Key:
lysates of E. coli = assay: Hydrolysis of substrate in E. coli lysates; format: biochemical
[1] = biological target: Dop (deamidase of Pup), Dop-His6 (Mycobacterium tuberculosis, UniProt P9WNU9); settings: for Km / kcat: Dop kinetics with synthetic substrate, n.a. = no activity
Dop (deamidase of Pup), Dop-His6, sequence (P9WNU9 whole entry): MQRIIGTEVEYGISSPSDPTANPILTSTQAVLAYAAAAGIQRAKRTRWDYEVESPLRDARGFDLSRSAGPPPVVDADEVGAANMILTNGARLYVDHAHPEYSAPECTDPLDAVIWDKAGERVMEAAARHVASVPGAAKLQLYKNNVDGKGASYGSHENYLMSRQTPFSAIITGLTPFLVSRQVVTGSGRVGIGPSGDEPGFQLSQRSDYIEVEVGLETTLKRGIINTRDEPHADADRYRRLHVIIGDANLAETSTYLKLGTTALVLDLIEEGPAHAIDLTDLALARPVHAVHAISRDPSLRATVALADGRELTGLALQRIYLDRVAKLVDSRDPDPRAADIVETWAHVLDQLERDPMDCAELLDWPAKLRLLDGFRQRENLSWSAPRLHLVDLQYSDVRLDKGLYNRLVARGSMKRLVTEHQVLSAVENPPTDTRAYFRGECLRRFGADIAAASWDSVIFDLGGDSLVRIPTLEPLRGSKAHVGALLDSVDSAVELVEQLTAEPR
From the text: SoftMax Pro (Molecular Devices) was used to measure the data and GraphPad Prism was used to fit the kinetic data.

| Substance | hydrolysis of substrate in lysate (lysates of E. coli) | Km [1] [nM] | kcat [1] [min⁻¹] | hydrolytic activity of Dop on the substrate (cleavage of AMC) ([1]; increase in fluorescence over time) |
| --- | --- | --- | --- | --- |
| MAQEQTKRGGGGGDDDDIAGSTAAGQERREKLTEETDDLLDEIDDV LEENAEDFVRAYVQKGG-Glu(AMC) [1a] | could not hydrolyze | 650 ± 70 | 0.60 ± 0.02 | showed hydrolytic activity |
| EETDDLLDEIDDVLEENAEDFVRAYVQKGG-Glu(AMC) [1b] |  | 750 ± 80 | 0.68 ± 0.02 |  |
